One test has as its target recombinant human MetAP2 (Homo sapiens (Human), UniProt P50579). As to the kind of experiment: recombinant human MetAP2 enzyme inhibition assay. The class given is biochemical. The conditions noted are these: recombinant human MetAP2, MAS peptide substrate, 25 minutes at 25° C. As to the method:
Compounds are tested for their capacity to inhibit recombinant human MetAP2 activity using the following assay.
Flag tagged Human recombinant MetAP2 expressed and isolated for use as the enzyme source. 10 mM stock solutions of compounds were prepared in 100% DMSO and further diluted in 100% DMSO required concentration to 1 mM stocks. The stock compound solutions and DMSO vehicle controls were diluted to target final compound concentrations using assay buffer to a final concentration of 50 mM HEPES containing 100 mM NaCl, pH adjusted to 7.5. The MAS peptide was formulated to a 7.5 mM stock in distilled water and prior to use further diluted 1:4. […] 40 μl of enzyme was mixed with 100 μl of MnCl2 then further diluted in assay buffer to a final concentration of 16 μg/ml. To test for compound effect on MetAP2 enzyme activity, 5 μl of test compound, 10 μl of MAS substrate/amino acid oxidase mixture, 10 μl of MetAP2 was added to test wells in a 384 well black plate with blank wells containing no enzyme, replaced with 10 μl of assay buffer. All compounds were tested in duplicate on two occasions on the same day.
The plate was sealed with a TopSeal A cover and mixed briefly on an orbital mixer at 900 rpm. The plate was incubated for a further 25 minutes at 25° C. A 5× stock of Amplex buffer was prepared (0.25M sodium phosphate, pH 7.4) and stored at 4° C. […] 25 μl detection reagent was added to each well of the test plate, which was re-sealed and mixed briefly on an orbital shaker.

For test [1], the system named is Diet Induced Obese (DIO) C57BL/6 mice. Put plainly: 10 day DIO mouse model (body weight, food intake, hematology, blood chemistry). It counts as in vivo. The conditions noted are these: 240 h, DIO mouse, once a day for 10 days, read-out: DIO Mouse 10-day weight loss vs vehicle; for inhibition in vivo at 0.3 mg/kg: 0.3 mpk sc. An outline of the steps: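 DIO C57BL/6 mice on 60% kcal fat diet received compounds subcutaneously once daily for 10 days at 1.0, 0.5, 0.3, 0.1 or 0.03 mpk, in 10% DMSO in water, after 3-day vehicle acclimation. Body weight and food intake were recorded daily. Hematology and blood chemistry were taken on Day 11, 24 h post-final dose.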

In test [2] the test system is Male Sprague Dawley rats on high fat diet. Put plainly: 11 day rat DIO model (body weight, food intake, hematology, blood chemistries). It counts as in vivo. The conditions noted are these: 264 h, DIO rat, once a day for 11 days, read-out: DIO Rat 11-day weight loss vs vehicle; for inhibition in vivo at 0.3 mg/kg: 0.3 mpk sc; for inhibition in vivo at 1 mg/kg: 1.0 mpk sc. An excerpt: The objective of this study design is to investigate the efficacy of disclosed compounds in an 11 day rat DIO model used to screen compounds for pharmacologic efficacy on endpoints related to obesity and metabolism. Effects on body weight, food intake, hematology and blood chemistries were the primary readouts of this study design. […] Rats were fed Research Diets D12451 (45% High Fat) and provided water ad libitum. Rats were received and housed in the facility for at least two or three weeks prior to start of test article administration. On Day −4 or −3, rats were randomized into study groups based on body weight and body weights were continued to be recorded daily for the duration of the study. Daily food intake was assessed starting on Study Day −2 by weighing the hopper including the food to avoid loss of food in transfer.
Compounds were formulated into a 100% DMSO stock (at 9 mg/mL) prior to the start, and further diluted into the target working concentration using the vehicle of 10% DMSO in water. Prior to test article administration, starting on Day −3 a dosing acclimation occured with all animals receiving a subcutaneous injection of vehicle (10% DMSO) only for 3 days. Starting on Day 1, test compounds or vehicle were administered based on individual body weight, subcutaneously, once a day for 11 days. All animals were sacrificed on Day 11, approximately 2 hours following the final dosing on Day 11. After sacrifice, whole blood was collected and analyzed for hematology and blood chemistry parameters.
Compounds were tested vs. vehicle at various doses (1.0, 0.5, 0.3, 0.1, 0.03 mpk sc (mg per kg animal weight delivered subcutaneously), and the results are shown in Table 2 below.

Where a name gives a salt, the structure may show the parent alone. Read-outs that look alike come from different tables or passages of the source.

As usually defined, the IC50 is the point on the concentration scale where inhibition reaches its midpoint.

Chain of recombinant human MetAP2 (P50579 whole entry): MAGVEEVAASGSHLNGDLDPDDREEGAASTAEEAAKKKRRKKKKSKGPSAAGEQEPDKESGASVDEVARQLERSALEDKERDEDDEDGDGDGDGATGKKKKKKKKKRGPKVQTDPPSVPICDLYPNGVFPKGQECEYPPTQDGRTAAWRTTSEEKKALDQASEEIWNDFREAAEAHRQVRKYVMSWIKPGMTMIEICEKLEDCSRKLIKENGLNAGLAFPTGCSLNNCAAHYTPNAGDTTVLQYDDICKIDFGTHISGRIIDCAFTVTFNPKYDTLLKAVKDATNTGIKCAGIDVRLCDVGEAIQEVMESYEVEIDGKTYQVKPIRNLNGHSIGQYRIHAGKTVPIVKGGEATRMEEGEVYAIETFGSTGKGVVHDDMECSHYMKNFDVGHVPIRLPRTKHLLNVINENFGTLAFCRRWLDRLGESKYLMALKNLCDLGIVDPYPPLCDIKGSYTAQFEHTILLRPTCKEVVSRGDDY

In the case of `CCN(CC)CCC1CCN(C(=O)O[C@@H]2CC[C@]3(CO3)[C@@H]([C@@]3(C)O[C@@H]3CC=C(C)C)[C@@H]2OC)C1` (stereo in doubt) [Example 56, (S)-(3R,4S,5S,6R)-5-methoxy-4-((2R,3R)-2-methyl-3-(3-methylbut-2-en-1-yl)oxiran-2-yl)-1-oxaspiro[2.5]octan-6-yl 3-(2-(diethylamino)ethyl)pyrrolidine-1-carboxylate], at recombinant human MetAP2, the IC50 is less than 50 nM. In test [1], the inhibition in vivo at 0.3 mg/kg was determined as 7.2%.
As for `CO[C@@H]1[C@H](OC(=O)N2CC(CCN3CCCCC3)C2)CC[C@]2(CO2)[C@H]1[C@@]1(C)O[C@@H]1CC=C(C)C` [Example 4, (3R,4S,5S,6R)-5-methoxy-4-((2R,3R)-2-methyl-3-(3-methylbut-2-enyl)oxiran-2-yl)-1-oxaspiro[2.5]octan-6-yl 3-(2-(piperidin-1-yl)ethyl)azetidine-1-carboxylate formate], the IC50 at recombinant human MetAP2 was less than 50 nM. Further, the inhibition in vivo at 0.3 mg/kg in test [1] is 4.1%.
With `CO[C@@H]1[C@H](OC(=O)N2CC(CCN3CCC3)C2)CC[C@]2(CO2)[C@H]1[C@@]1(C)O[C@@H]1CC=C(C)C` [Example 5, (3R,4S,5S,6R)-5-methoxy-4-((2R,3R)-2-methyl-3-(3-methylbut-2-en-1-yl)oxiran-2-yl)-1-oxaspiro[2.5]octan-6-yl 3-(2-(azetidin-1-yl)ethyl)azetidine-1-carboxylate], the half-maximal inhibitory concentration (IC50) at recombinant human MetAP2 is less than 50 nM. Further, the inhibition in vivo at 0.3 mg/kg in test [1] worked out at 4.3%.
Regarding `CO[C@@H]1[C@H](OC(=O)N2CC(CCN3CCC(O)CC3)C2)CC[C@]2(CO2)[C@H]1[C@@]1(C)O[C@@H]1CC=C(C)C` [Example 7, (3R,4S,5S,6R)-5-methoxy-4-((2R,3R)-2-methyl-3-(3-methylbut-2-en-1-yl)oxiran-2-yl)-1-oxaspiro[2.5]octan-6-yl 3-(2-(4-hydroxypiperidin-1-yl)ethyl)azetidine-1-carboxylate], the concentration for half-maximal inhibition (IC50) at recombinant human MetAP2 is less than 50 nM. Besides, the inhibition in vivo at 0.3 mg/kg in test [1] (Mus musculus, sc) worked out at 1.8%.
For `CO[C@@H]1[C@H](OC(=O)N2CC(CCN3CCC(C)(O)CC3)C2)CC[C@]2(CO2)[C@H]1[C@@]1(C)O[C@@H]1CC=C(C)C` [Example 8, (3R,4S,5S,6R)-5-methoxy-4-((2R,3R)-2-methyl-3-(3-methylbut-2-enyl)oxiran-2-yl)-1-oxaspiro[2.5]octan-6-yl 3-(2-(4-hydroxy-4-methylpiperidin-1-yl)ethyl)azetidine-1-carboxylate], the IC50 on recombinant human MetAP2 was less than 50 nM. Also, the inhibition in vivo at 0.3 mg/kg in test [1] came to 4.9%. For the same molecule, the inhibition in vivo at 1 mg/kg in test [1] (1.0 mpk sc) was 17.3%.
With `CO[C@@H]1[C@H](OC(=O)N2CC(CCN3CC4(COC4)C3)C2)CC[C@]2(CO2)[C@H]1[C@@]1(C)O[C@@H]1CC=C(C)C` [Example 16, (3R,4S,5S,6R)-5-methoxy-4-((2R,3R)-2-methyl-3-(3-methylbut-2-en-1-yl)oxiran-2-yl)-1-oxaspiro[2.5]octan-6-yl 3-(2-(2-oxa-6-azaspiro[3.3]heptan-6-yl)ethyl)azetidine-1-carboxylate], on recombinant human MetAP2, the IC50 is less than 50 nM. Moreover, the inhibition in vivo at 0.3 mg/kg in test [1] is 3.1%.
Regarding `CCN(CC)CCC1(O)CN(C(=O)O[C@@H]2CC[C@]3(CO3)[C@@H]([C@@]3(C)O[C@@H]3CC=C(C)C)[C@@H]2OC)C1` [Example 49, (3R,4S,5S,6R)-5-methoxy-4-((2R,3R)-2-methyl-3-(3-methylbut-2-enyl)oxiran-2-yl)-1-oxaspiro[2.5]octan-6-yl 3-(2-(diethylamino)ethyl)-3-hydroxyazetidine-1-carboxylate], the IC50 at recombinant human MetAP2 is less than 50 nM. The inhibition in vivo at 0.3 mg/kg in test [1] is 4.1%.
In the case of `CCN(CC)CCCC1(O)CN(C(=O)O[C@@H]2CC[C@]3(CO3)[C@@H]([C@@]3(C)O[C@@H]3CC=C(C)C)[C@@H]2OC)C1` [Example 61, (3R,4S,5S,6R)-5-methoxy-4-((2R,3R)-2-methyl-3-(3-methylbut-2-enyl)oxiran-2-yl)-1-oxaspiro[2.5]octan-6-yl 3-(3-(diethylamino)propyl)-3-hydroxyazetidine-1-carboxylate], the IC50 at recombinant human MetAP2 is less than 50 nM.
Consider `CO[C@@H]1[C@H](OC(=O)N2CC(CC(=O)N3CCOCC3)C2)CC[C@]2(CO2)[C@H]1[C@@]1(C)O[C@@H]1CC=C(C)C` [Example 62, (3R,4S,5S,6R)-5-methoxy-4-((2R,3R)-2-methyl-3-(3-methylbut-2-enyl)oxiran-2-yl)-1-oxaspiro[2.5]octan-6-yl 3-(2-morpholino-2-oxoethyl)azetidine-1-carboxylate formate], for which the IC50 at recombinant human MetAP2 was less than 50 nM. In addition, the inhibition in vivo at 0.3 mg/kg in test [1] turned out to be 7.4%.
As for `CO[C@@H]1[C@H](OC(=O)N2CC(Nc3ccccn3)C2)CC[C@]2(CO2)[C@H]1[C@@]1(C)O[C@@H]1CC=C(C)C` [Example 98, (3R,4S,5S,6R)-5-methoxy-4-((2R,3R)-2-methyl-3-(3-methylbut-2-enyl)oxiran-2-yl)-1-oxaspiro[2.5]octan-6-yl 3-(pyridin-2-ylamino)azetidine-1-carboxylate], the values for the inhibition in vivo at 0.3 mg/kg in test [1] and in test [2] were 12.6% and 1.2%, respectively.
For `CO[C@@H]1[C@H](OC(=O)N2CC(Cc3ccccn3)C2)CC[C@]2(CO2)[C@H]1[C@@]1(C)O[C@@H]1CC=C(C)C` [Example 100, (3R,4S,5S,6R)-5-methoxy-4-((2R,3R)-2-methyl-3-(3-methylbut-2-en-1-yl)oxiran-2-yl)-1-oxaspiro[2.5]octan-6-yl 3-(pyridin-2-ylmethyl)azetidine-1-carboxylate] the same measures were 9.8% and 5.5%.
With `CCN(CC)CCC1CCN1C(=O)O[C@@H]1CC[C@]2(CO2)[C@@H]([C@@]2(C)O[C@@H]2CC=C(C)C)[C@@H]1OC` (stereo partly drawn) [Example 106, (3R,4S,5S,6R)-5-methoxy-4-((2R,3R)-2-methyl-3-(3-methylbut-2-enyl)oxiran-2-yl)-1-oxaspiro[2.5]octan-6-yl 2-(2-(diethylamino)ethyl)azetidine-1-carboxylate], the inhibition in vivo at 0.1 mg/kg in test [1] (Mus musculus, sc, 0.1 mpk sc) amounted to 2%. The inhibition in vivo at 0.5 mg/kg in test [2] (0.5 mpk sc) amounted to 4.82%.
As for `CO[C@@H]1[C@H](OC(=O)N2CC(CCN3CC(F)(F)C3)C2)CC[C@]2(CO2)[C@H]1[C@@]1(C)O[C@@H]1CCC(C)C` [Example 126, (3R,4S,5S,6R)-4-((2R,3R)-3-isopentyl-2-methyloxiran-2-yl)-5-methoxy-1-oxaspiro[2.5]octan-6-yl3-(2-(3,3-difluoroazetidin-1-yl)ethyl)azetidine-1-carboxylate], the inhibition in vivo at 0.3 mg/kg in test [1] worked out at 13.2%; in test [2], 7.4%. Further, the inhibition in vivo at 1 mg/kg in test [2] was determined as 9.1%.
For `CO[C@@H]1[C@H](OC(=O)N2CC(CCN3CCOCC3)C2)CC[C@]2(CO2)[C@H]1[C@@]1(C)O[C@@H]1CCC(C)C` [Example 127, (3R,4S,5S,6R)-4-((2R,3R)-3-isopentyl-2-methyloxiran-2-yl)-5-methoxy-1-oxaspiro[2.5]octan-6-yl 3-(2-morpholinoethyl)azetidine-1-carboxylate], in that order: 15.2%, 6.1% and 10.7%.

Values taken from patent US9682965B2, “Fumagillol heterocyclic compounds and methods of making and using same” (Zafgen, Inc., priority 2015, dated 2017).
